This is an account of results in US8575186B2, “Epiminocycloalkyl[b] indole derivatives as serotonin sub-type 6 (5-HT6) modulators and uses thereof” (Albany Molecular Research, Inc., priority 2009, dated 2013).

Counter-ions that a name gives are not always drawn.

human 5-HT6 receptor, sequence (P50406 whole entry): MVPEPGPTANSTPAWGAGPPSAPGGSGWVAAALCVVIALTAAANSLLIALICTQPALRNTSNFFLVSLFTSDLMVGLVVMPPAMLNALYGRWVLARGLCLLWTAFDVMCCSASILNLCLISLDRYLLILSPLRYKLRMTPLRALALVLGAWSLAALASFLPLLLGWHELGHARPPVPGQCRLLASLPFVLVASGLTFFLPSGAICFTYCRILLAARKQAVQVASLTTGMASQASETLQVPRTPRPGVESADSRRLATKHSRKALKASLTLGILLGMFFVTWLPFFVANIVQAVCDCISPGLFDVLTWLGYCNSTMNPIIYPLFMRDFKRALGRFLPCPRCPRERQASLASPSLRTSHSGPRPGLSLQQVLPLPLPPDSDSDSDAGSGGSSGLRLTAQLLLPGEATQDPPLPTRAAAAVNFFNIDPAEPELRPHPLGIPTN

The first test concerns the target human 5-HT6 receptor (Homo sapiens (Human), UniProt P50406). Description: radioligand binding assay (SPA format), [N-methyl-3H]-LSD. To be noted: human 5HT6 Ki, human 5-HT6 receptor membranes, 10 nM [3H]-LSD.
The Ki is the equilibrium dissociation constant of an inhibitor or competing ligand from its target. `Cn1c2c(c3cc(S(=O)(=O)n4ccc5ccc(C#N)cc54)ccc31)C1CCC(C2)N1` (centres unmarked) [Example 199] displayed a Ki of 1.8 nM.
Same read-out and setting: the result for `COc1cc(S(=O)(=O)c2cccc(C(F)(F)F)c2)cc2c3c(n(C)c12)CC1CCC3N1` (centres unmarked) [Example 216] reads 0.8 nM.

The test is the same for the next values; noted with them: read-out: human 5HT6 Ki; human 5-HT6 receptor membranes, 10 nM [3H]-LSD.
On to `Cn1c2c(c3cc(S(=O)(=O)c4ccc(C#N)cc4)ccc31)C1CCC(C2)N1` (centres unmarked) [Example 177], for which the inhibitory constant (Ki) was determined as 747 nM.
Still for that read-out and setting: the result for `Cn1cc(S(=O)(=O)c2ccc3c(c2)c2c(n3C)CC3CCC2N3)c2ccccc21` (centres unmarked) [Example 165] reads 0.81 nM.
The same measure, in the same setting: to `COc1cc(S(=O)(=O)c2cccc(Cl)c2)cc2c3c(n(C)c12)CC1CCC3N1C` (centres unmarked) [Example 225] belongs 0.53 nM; to `CC(C)n1c2c(c3cc(S(=O)(=O)c4ccccc4)ccc31)C1CCC(C2)N1` (centres unmarked) [Example 182], 365 nM.
`CCOc1cc(S(=O)(=O)c2ccccc2)cc2c3c(n(C)c12)CC1CCC3N1` (centres unmarked) [Example 235]: the Ki amounted to 0.42 nM.
As for `Cn1c2c(c3cc(S(=O)(=O)n4ccc5ccc(C#N)cc54)ccc31)C1CCC(C2)N1` (centres unmarked) [Example 200], the Ki is 0.75 nM.
Consider `Cn1c2c(c3cc(S(=O)(=O)c4cccc5cccnc45)ccc31)C1CCC(C2)N1` (centres unmarked) [Example 169], for which the Ki was 27 nM.
On the same count and under the same terms, to `CCc1cc(S(=O)(=O)c2ccccc2)cc2c3c(n(C)c12)CC1CCC3N1` (centres unmarked) [Example 80, 2-Phenylsulfonyl-4-ethyl-5-methyl-5,6,7,8,9,10-hexahydro-7,10-epiminocyclohepta[b]indole hydrochloride] belongs 17 nM.
Consider `Cn1c2c(c3cc(S(=O)(=O)c4ccccc4)cc(OC(F)(F)F)c31)C1CCC(C2)N1` (centres unmarked) [Example 150], for which the Ki was 70 nM.
For `Cn1c2c(c3cc(S(=O)(=O)c4cccc(-n5cccn5)c4)ccc31)C1CCC(C2)N1` (centres unmarked) [Example 244], the Ki is 14 nM.
As to `Cn1c2c(c3cc(S(=O)(=O)c4ccccc4)cc(N4CCCC4)c31)C1CCC(C2)N1` (centres unmarked) [Example 156], the Ki came to 52 nM.
In the case of `Cn1c2c(c3cc(S(=O)(=O)c4cccc(OCc5ccncc5)c4)ccc31)C1CCC(C2)N1` (centres unmarked) [Example 133], the Ki came to 11 nM.
The same measure, in the same setting: the result for `Cn1c2c(c3cc(S(=O)(=O)c4ccc5[nH]ccc5c4)ccc31)C1CCC(C2)N1CCO` (centres unmarked) [Example 138] reads 1.2 nM.
For the compound `Cn1c2c(c3cc(S(=O)(=O)c4cc(C(F)(F)F)c5[nH]ccc5c4)ccc31)C1CCC(C2)N1` (centres unmarked) [Example 123], the Ki worked out at 0.47 nM.
The same measure, in the same setting: the result for `COc1cc(S(=O)(=O)c2cncc3ccccc23)cc2c3c(n(C)c12)CC1CCC3N1` (centres unmarked) [Example 232] reads 9.6 nM.
Same read-out and setting: to `Cn1c2c(c3cc(S(=O)(=O)c4ccc(CN)cc4)ccc31)C1CCC(C2)N1` (centres unmarked) [Example 33, 2-(4-Aminomethylphenyl)sulfonyl-5-methyl-5,6,7,8,9,10-hexahydro-7,10-epiminocyclohepta[b]indole dihydrochloride] belongs 15 nM; to `COc1cc(S(=O)(=O)c2cccc(-n3cccn3)c2)cc2c3c(n(C)c12)CC1CCC3N1` (centres unmarked) [Example 246], 10 nM.
Still for that read-out and setting: the result for `CC(C)N1C2CCC1c1c(n(C)c3ccc(S(=O)(=O)c4ccc5[nH]ccc5c4)cc13)C2` (centres unmarked) [Example 135] reads 3.2 nM; that for `Cn1c2c(c3cc(S(=O)(=O)n4ccc5c(F)cccc54)ccc31)C1CCC(C2)N1` (centres unmarked) [Example 64, 2-[1-(4-Fluoro)-indole]sulfonyl-5-methyl-5,6,7,8,9,10-hexahydro-7,10-epiminocyclohepta[b]indole hydrochloride], 5.6 nM; that for `CN1C2CCC1c1c(n(C)c3ccc(S(=O)(=O)c4ccc5[nH]ccc5c4)cc13)C2` (centres unmarked) [Example 183], 0.42 nM.
Turning to `Cn1c2c(c3cc(S(=O)(=O)c4ccc5sccc5c4)ccc31)C1CCC(C2)N1` (centres unmarked) [Example 104], the Ki was 5 nM.
Regarding `Cn1c2c(c3cc(S(=O)(=O)c4ccccc4F)ccc31)C1CCC(C2)N1` (centres unmarked) [Example 112], the Ki is 4.6 nM.
The same measure, in the same setting: to `Cn1c2c(c3cc(S(=O)(=O)c4cn(Cc5ccccc5)c5ccccc45)ccc31)C1CCC(C2)N1` (centres unmarked) [Example 102] belongs 0.71 nM; to `Cn1c2c(c3cc(S(=O)(=O)c4cccc(-n5cccn5)c4)ccc31)C1CCC(C2)N1` (centres unmarked) [Example 245], 9 nM; to `Cn1c2c(c3cc(S(=O)(=O)c4cccc5cc[nH]c45)ccc31)C1CCC(C2)N1` (centres unmarked) [Example 99], 4.5 nM.
On the same count and under the same terms, to `COc1cc(S(=O)(=O)c2cncc3ccccc23)cc2c3c(n(C)c12)CC1CCC3N1` (centres unmarked) [Example 233] belongs 3.7 nM; to `Cn1c2c(c3cc(S(=O)(=O)c4ccccc4)ccc31)C1CCCC(C2)N1` (centres unmarked) [Example 92, 2-(Phenylsulfonyl)-5-methyl-6,7,8,9,10,11-hexahydro-5H-7,11-epiminocycloocta[b]indole hydrochloride], 150 nM.
As to `COc1cc(S(=O)(=O)c2cccc(Cl)c2)cc2c3c(n(C)c12)CC1CCC3N1C` (centres unmarked) [Example 226], the inhibition constant Ki turned out to be 1 nM.
Same read-out and setting: to `Cn1c2c(c3cc(S(=O)(=O)c4cccc(-c5cc[nH]n5)c4)ccc31)C1CCC(C2)N1` (centres unmarked) [Example 125] belongs 244 nM; to `Cn1c2c(c3cc(S(=O)(=O)c4ccccc4F)cc(O)c31)C1CCC(C2)N1` (centres unmarked) [Example 210], 1 nM.
In the case of `Cn1cc(S(=O)(=O)c2ccc3c(c2)c2c(n3C)CC3CCC2N3)c2ccccc21` (centres unmarked) [Example 166], the inhibitory constant (Ki) was found to be 0.41 nM.
The same measure, in the same setting: the result for `Cn1c2c(c3cc(S(=O)(=O)c4cn(-c5ccccc5)c5ccccc45)ccc31)C1CCC(C2)N1` (centres unmarked) [Example 103] reads 9.3 nM.
Turning to `Cc1cc(S(=O)(=O)c2csc3ccccc23)cc2c3c(n(C)c12)CC1CCC3N1` (centres unmarked) [Example 141], the Ki was found to be 0.29 nM.
With `Cn1c2c(c3cc(S(=O)(=O)c4ccnc5ccccc45)ccc31)C1CCC(C2)N1` (centres unmarked) [Example 132], the Ki was 39 nM.
Still for that read-out and setting: the result for `COc1cc(S(=O)(=O)c2cccc(F)c2)cc2c3c(n(C)c12)CC1CCC3N1` (centres unmarked) [Example 221] reads 3.3 nM.
In the case of `COc1cc(S(=O)(=O)n2ccc3ccc(C#N)cc32)cc2c3c(n(C)c12)CC1CCC3N1` (centres unmarked) [Example 243], the Ki came to 0.58 nM.
On the same count and under the same terms, to `Cc1cn(S(=O)(=O)c2ccc3c(c2)c2c(n3C)CC3CCC2N3)c2ccccc12` (centres unmarked) [Example 201] belongs 1.4 nM; to `COc1cc(S(=O)(=O)c2cccc(OCc3ccccc3)c2)cc2c3c(n(C)c12)CC1CCC3N1` (centres unmarked) [Example 147], 1.4 nM; to `CC(C)n1c2c(c3cc(S(=O)(=O)c4ccccc4)ccc31)C1CCC(C2)N1` (centres unmarked) [Example 181], 284 nM.
Still for that read-out and setting: the result for `CN(C)C(=O)COc1cc(S(=O)(=O)c2ccccc2)cc2c3c(n(C)c12)CC1CCC3N1` (centres unmarked) [Example 153] reads 581 nM; that for `Cn1c2c(c3cc(S(=O)(=O)c4cc(F)ccn4)ccc31)C1CCC(C2)N1` (centres unmarked) [Example 96], 341 nM.
On the same count and under the same terms, to `CN1C2CCC1c1c(n(C)c3ccc(S(=O)(=O)c4ccc5[nH]ccc5c4)cc13)C2` (centres unmarked) [Example 134] belongs 0.26 nM; to `Cc1cc2ccccc2n1S(=O)(=O)c1ccc2c(c1)c1c(n2C)CC2CCC1N2` (centres unmarked) [Example 126], 7.2 nM; to `Cc1cn(S(=O)(=O)c2ccc3c(c2)c2c(n3C)CC3CCC2N3)c2ccccc12` (centres unmarked) [Example 202], 0.72 nM.
For the compound `CN(C)Cc1ccc(S(=O)(=O)c2ccc3c(c2)c2c(n3C)CC3CCC2N3)cc1` (centres unmarked) [Example 34, 2-[4-(N,N-Dimethylaminomethyl)phenyl]sulfonyl-5-methyl-5,6,7,8,9,10-hexahydro-7,10-epiminocyclohepta[b]indole dihydrochloride], the Ki was 4.8 nM.
As for `CC(C)n1ccc2cc(S(=O)(=O)c3ccc4c(c3)c3c(n4C)CC4CCC3N4)ccc21` (centres unmarked) [Example 117], the Ki is 4.4 nM.
Consider `Cn1c2c(c3cc(S(=O)(=O)c4cc(F)c5[nH]ccc5c4)ccc31)C1CCC(C2)N1` (centres unmarked) [Example 124], for which the inhibitory constant (Ki) was 0.33 nM.
Same read-out and setting: to `Cn1c2c(c3cc(S(=O)(=O)c4ccccc4)cc(C#N)c31)C1CCC(C2)N1` (centres unmarked) [Example 142] belongs 115 nM; to `CCN1C2CCC1c1c(n(C)c3ccc(S(=O)(=O)c4ccc5[nH]ccc5c4)cc13)C2` (centres unmarked) [Example 186], 0.77 nM.
On the same count and under the same terms, to `Cn1c2c(c3cc(S(=O)(=O)c4cccc(C(F)(F)F)c4)cc(O)c31)C1CCC(C2)N1` (centres unmarked) [Example 209] belongs 0.53 nM; to `Cn1c2c(c3cc(S(=O)(=O)c4cccc5ccncc45)ccc31)C1CCC(C2)N1` (centres unmarked) [Example 131], 13 nM; to `COc1cc(S(=O)(=O)n2ncc3ccccc32)cc2c3c(n(C)c12)CC1CCC3N1` (centres unmarked) [Example 148], 1.3 nM.
Consider `COc1cc(S(=O)(=O)n2ccc3ccccc32)cc2c3c(n(C)c12)CC1CCC3N1` (centres unmarked) [Example 240], for which the Ki is 0.85 nM.
Same read-out and setting: to `CN1C2CCC1c1c(n(C)c3ccc(S(=O)(=O)c4ccccc4)cc13)C2` (centres unmarked) [Example 69, 2-Phenylsulfonyl-5-methyl-5,6,7,8,9,10-hexahydro-7,10-N-methyl-epiminocyclohepta[b]indole hydrochloride] belongs 7.8 nM; to `COc1cc(S(=O)(=O)c2cccc(OC(F)F)c2)cc2c3c(n(C)c12)CC1CCC3N1` (centres unmarked) [Example 214], 3 nM.
Same read-out and setting: the result for `Cn1c2c(c3cc(S(=O)(=O)c4ccc5cc[nH]c5c4)ccc31)C1CCC(C2)N1` (centres unmarked) [Example 95] reads 5.8 nM; that for `COc1cc(S(=O)(=O)n2ccc3ccccc32)cc2c3c(n(C)c12)CC1CCC3N1` (centres unmarked) [Example 241], 0.35 nM.
On the same count and under the same terms, to `Cn1c2c(c3cc(S(=O)(=O)c4cccc5ncccc45)ccc31)C1CCC(C2)N1` (centres unmarked) [Example 110] belongs 148 nM; to `Cn1c2c(c3cc(S(=O)(=O)c4ccc5occc5c4)ccc31)C1CCC(C2)N1` (centres unmarked) [Example 116], 20 nM; to `Cn1c2c(c3cc(S(=O)(=O)c4ccc5sccc5c4)ccc31)C1CCC(C2)N1` (centres unmarked) [Example 168], 3.3 nM.
For the compound `Cn1c2c(c3cc(S(=O)(=O)c4cc(Cl)ccn4)ccc31)C1CCC(C2)N1` (centres unmarked) [Example 97], the Ki stood at 104 nM.
The same measure, in the same setting: the result for `Cn1c2c(c3cc(S(=O)(=O)c4ccccc4O)ccc31)C1CCC(C2)N1` (centres unmarked) [Example 105] reads 100 nM; that for `COc1cc(S(=O)(=O)c2ccc3[nH]ccc3c2)cc2c3c(n(C)c12)CC1CCC3N1` (centres unmarked) [Example 145], 0.31 nM.
